# pIC50: −log10 of the molar value.
# System: 935938-334-R-J1-PDC complex spheroid viability
# Experiment: Anticancer human tumor 935938-334-R-J1-PDC patient-derived small intestine adenocarcinoma cell line growth inhibition [POLQ]
# Settings: for pIC50: curve of first compound; for viability, T/C: stronger effect = lower value
# In short: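 Growth inhibition in 3D: complex spheroids (tumor PDC, HUVEC, MSC) treated with POLQ inhibitor combinations; where Cmax unknown, highest tested concentration 10 microM, except SN-38 at 1 microM.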
# 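Also: spheroids exposed to drugs for seven days before viability read.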
# 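For viability, T/C in this document: 100% = DMSO vehicle control wells.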
structure (smiles),measurement,setting,value
COc1ccc([C@@H](O)c2cc(-c3ncnc4cc(N5CCOCC5)ccc34)c(F)cc2Cl)nn1 + Cc1cccc(N(C)C(=O)C2C(O)CCN2c2nc(C)cc(C(F)(F)F)c2C#N)c1,pIC50,second compound 0.0316 µM,5.22
same,pIC50,second compound 0.1 µM,5.37
same,pIC50,second compound 0.316 µM,5.49
same,pIC50,second compound 1 µM,5.19
same,pIC50,second compound 3.16 µM,5.43
same,pIC50,second compound 10 µM,5.59
same,"viability, T/C","second compound 0.0316 µM, first compound 0.0316 µM",79.3%
same,"viability, T/C","second compound 0.0316 µM, first compound 0.1 µM",117%
same,"viability, T/C","second compound 0.0316 µM, first compound 0.316 µM",76.8%
same,"viability, T/C","second compound 0.0316 µM, first compound 1 µM",79.1%
same,"viability, T/C","second compound 0.0316 µM, first compound 3.16 µM",63.8%
same,"viability, T/C","second compound 0.0316 µM, first compound 10 µM",39.9%
same,"viability, T/C","second compound 0.1 µM, first compound 0.0316 µM",75.3%
same,"viability, T/C","second compound 0.1 µM, first compound 0.1 µM",98.1%
same,"viability, T/C","second compound 0.1 µM, first compound 0.316 µM",69.6%
same,"viability, T/C","second compound 0.1 µM, first compound 1 µM",60.3%
same,"viability, T/C","second compound 0.1 µM, first compound 3.16 µM",61.4%
same,"viability, T/C","second compound 0.1 µM, first compound 10 µM",34.5%
same,"viability, T/C","second compound 0.316 µM, first compound 0.0316 µM",116%
same,"viability, T/C","second compound 0.316 µM, first compound 0.1 µM",98.9%
same,"viability, T/C","second compound 0.316 µM, first compound 0.316 µM",97.6%
same,"viability, T/C","second compound 0.316 µM, first compound 1 µM",75.8%
same,"viability, T/C","second compound 0.316 µM, first compound 3.16 µM",48.2%
same,"viability, T/C","second compound 0.316 µM, first compound 10 µM",30.3%
same,"viability, T/C","second compound 1 µM, first compound 0.0316 µM",90.6%
same,"viability, T/C","second compound 1 µM, first compound 0.1 µM",80.2%
same,"viability, T/C","second compound 1 µM, first compound 0.316 µM",83.4%
same,"viability, T/C","second compound 1 µM, first compound 1 µM",97.6%
same,"viability, T/C","second compound 1 µM, first compound 3.16 µM",72.7%
same,"viability, T/C","second compound 1 µM, first compound 10 µM",35.8%
same,"viability, T/C","second compound 3.16 µM, first compound 0.0316 µM",101%
same,"viability, T/C","second compound 3.16 µM, first compound 0.1 µM",85%
same,"viability, T/C","second compound 3.16 µM, first compound 0.316 µM",81.8%
same,"viability, T/C","second compound 3.16 µM, first compound 1 µM",67.2%
same,"viability, T/C","second compound 3.16 µM, first compound 3.16 µM",55%
same,"viability, T/C","second compound 3.16 µM, first compound 10 µM",33.1%
same,"viability, T/C","second compound 10 µM, first compound 0.0316 µM",103%
same,"viability, T/C","second compound 10 µM, first compound 0.1 µM",80.8%
same,"viability, T/C","second compound 10 µM, first compound 0.316 µM",85.6%
same,"viability, T/C","second compound 10 µM, first compound 1 µM",59.9%
same,"viability, T/C","second compound 10 µM, first compound 3.16 µM",48.9%
same,"viability, T/C","second compound 10 µM, first compound 10 µM",28.4%
